Test results published in PMC2920814 (PLoS ONE, 2010).
Where “and” joins values, the source holds several entries; their conditions need not be identical. Equal values may be shown once. Entries after “also recorded” stand apart in the source; their conditions may differ.

Legend:
pyridoxal kinase (PDXK) = molecular target: T1, pyridoxal kinase (PDXK) (Mus musculus, UniProt Q8K183); assay: Affinity chromatography on immobilized drugs, Western blotting; assay type: binding; details: adult mouse brain extract 500 µg, sepharose beads
T1 sequence (Q8K183 1-312): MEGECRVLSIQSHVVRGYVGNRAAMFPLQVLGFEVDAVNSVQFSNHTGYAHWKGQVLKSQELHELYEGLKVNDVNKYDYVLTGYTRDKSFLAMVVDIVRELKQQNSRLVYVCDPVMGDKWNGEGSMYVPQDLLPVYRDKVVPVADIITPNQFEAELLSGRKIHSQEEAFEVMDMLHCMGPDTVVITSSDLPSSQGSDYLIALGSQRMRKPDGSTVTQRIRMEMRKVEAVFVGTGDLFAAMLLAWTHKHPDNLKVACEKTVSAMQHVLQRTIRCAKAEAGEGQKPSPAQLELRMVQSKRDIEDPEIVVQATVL

Erk2 [1] = molecular target: Erk2 (Mus musculus, UniProt P63085); assay: as above; assay type: binding; details: adult mouse brain extract 500 µg, sepharose beads
Erk2, sequence (P63085 whole entry): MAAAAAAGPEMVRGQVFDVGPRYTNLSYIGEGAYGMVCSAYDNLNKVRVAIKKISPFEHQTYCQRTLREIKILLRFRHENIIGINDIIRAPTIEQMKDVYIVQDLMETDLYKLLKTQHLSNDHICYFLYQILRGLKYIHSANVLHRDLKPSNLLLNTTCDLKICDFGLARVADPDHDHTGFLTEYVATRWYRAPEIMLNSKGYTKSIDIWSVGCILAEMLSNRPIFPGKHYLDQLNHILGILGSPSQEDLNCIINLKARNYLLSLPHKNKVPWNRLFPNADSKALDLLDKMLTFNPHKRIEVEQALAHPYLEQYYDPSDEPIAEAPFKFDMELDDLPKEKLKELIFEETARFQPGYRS

[2] = Blood brain barrier permeability, brain and plasma level after IV injection (LC/MS/MS); assay type: in vivo; details: SD, rat, brain, sampling time 15 min, healthy adult rats, n = 2
Procedure: Dosed animals were sacrificed at 15 min after the end of the intravenous injection. Blood were collected through the retro-orbital sinus using a capillary tube. Animals were then perfused with saline solution into the heart to […] the brain. Brain was collected, and homogenized. Both plasma and brain samples were analyzed using LC/MS/MS determination, according to ADME-Bioanalysis (Vergeze, France) procedures.

[3] = tested on: permanent focal cerebral ischemia (pMCAo) in adult mice; assay: Permanent middle cerebral artery occlusion (pMCAo), infarct volumes by TTC staining; assay type: in vivo, mouse (C57 b/6); details: 3 hrs after occlusion
[4] = tested on: E18 mixed hippocampal cell cultures; assay: Kainate (KA)-induced neuronal excitotoxicity, PI staining; assay type: cell-based, rat (Wistar); details: KA 200 µM for 5 hrs; for neuroprotective effect on KA-induced neuronal death (relative neuronal death): 10 div cultures, compound added with KA, 0.05 to 50 µM
CK1 = tested on: CK1; parameters: method as in PMID 15975926, PMID 15985434; details: previously described; ref [30], [31]; cited from earlier work
CDK5/p25 = tested on: CDK5/p25; parameters: method as in PMID 15975926, PMID 15985434; details: previously described; ref [30], [31]; cited from earlier work
ERK2 [5] = tested on: ERK2; parameters: method as in PMID 15975926, PMID 15985434; details: previously described; ref [30], [31]; cited from earlier work
CDK2/CyclE = tested on: CDK2/CyclE; parameters: method as in PMID 15975926, PMID 15985434; details: previously described; ref [30], [31]; cited from earlier work
CDK1/CyclB = tested on: CDK1/CyclB; parameters: method as in PMID 15975926, PMID 15985434; details: previously described; ref [30], [31]; cited from earlier work
[6] = ICV infusion 500 µM starting 48 hrs before pMCAo
[7] = IP 25 mg/kg 15 min pre- and 1 hr post-MCAo, 25 mg/kg

Row | SMILES | binding of PDXK to immobilized compound (pyridoxal kinase (PDXK)) | binding of Erk2 to immobilized compound (Erk2 [1]) | Kp at 0.25 h ([2]; 20 mg/kg, i.v. 20 mg/kg) | Kp at 0.25 h ([2]; 30 mg/kg, i.v. 30 mg/kg) | decrease of the total infarct volume compared to vehicle [3, 6] | ischemic core volume compared to vehicle [3, 6] | reduction of the ischemic (hypometabolic) zone volume compared to vehicle [3, 6] | ischemic core volume compared to vehicle ([3]; IP 25 mg/kg 15 min pre- and 1 hr post-MCAo) | decrease of the ischemic (hypometabolic) zone volume compared to vehicle [3, 7] | decrease of the total infarct volume compared to vehicle [3, 7] | neuroprotective effect compared to the (R) stereoisomer ([4]; 0.5 µM) | IC50 (CK1) | IC50 (CDK5/p25) | IC50 (ERK2 [5]) | IC50 (CDK2/CyclE) | neuroprotective effect on KA-induced neuronal death (relative neuronal death) [4] | neuroprotective effect on KA-induced neuronal death (relative neuronal death) ([4]; listed as N^6-methyl-(R)-roscovitine) | IC50 (CDK1/CyclB)
1 | CC[C@H](CO)Nc1nc(NCc2ccccc2)c2ncn(C(C)C)c2n1 [(R)-roscovitine] | bind | bind |  |  |  |  |  |  |  |  |  |  |  |  |  |  |  | 
2 | CC[C@@H](CO)Nc1nc(NCc2ccccc2)c2ncn(C(C)C)c2n1 [(S)-roscovitine] | did not bind | preferentially bound and bind | 0.15 | 0.17 | 28% and 27.7% | comparable | 36% and 35.8% | comparable | 39% and 38.9% | 31% and 30.7% | significantly stronger neuroprotective effect; also recorded: significantly increased neuroprotective activity |  |  |  |  |  |  | 
3 | CC[C@H](CO)Nc1nc(N(C)Cc2ccccc2)c2ncn(C(C)C)c2n1 [N^6-methyl (R)-roscovitine] | bind |  |  |  |  |  |  |  |  |  |  | > 1000 µM | 45 µM | > 1000 µM | 250 µM | no significant neuroprotective effect | did not exhibited any neuroprotective effect | 45 µM
4 | CC[C@H](CO)Nc1nc(OCc2ccccc2)c2ncn(C(C)C)c2n1 [O^6-(R)-roscovitine] |  |  |  |  |  |  |  |  |  |  |  | > 1000 µM | 200 µM | 700 µM | 250 µM | no significant neuroprotective effect; also recorded: did not exhibited any neuroprotective effect |  | 100 µM
